22 compounds from patent US8088936B2, “Leukotriene B4 inhibitors” (Hoffman-La Roche Inc., priority 2009, dated 2012) can be followed below.

The experiment deals with Human leukemia HL-60 cells endogenously expressing BLT1 and BLT2 receptors. Description: Ca2+ flux assay for LTB4 antagonist assay (HL-60 FLIPR). In kind it is cell-based. As to conditions: retinoic acid induced HL-60 cells, inhibition of LTB4-induced Ca2+ flux, 30 min preincubation; read-out: LTB4 antagonism (HL-60 FLIPR). As to the method: Assay of Compounds for Inhibition of LTB4 Activity
Ca^2+Flux Assay for LTB4 Antagonist Assay
Human leukemia HL-60 cells endogenously expressing BLT1 and BLT2 receptors were cultured in RPMI-1640 medium supplemented with 20% fetal bovine serum, 2 mM glutamine, 100 U/ml penicillin and 100 ug/ml streptomycin.
Seventy two hours prior to experiment cells are counted using ViaCount reagent, centrifuged and resuspended at 2.0×10^5 cells/ml density with the complete growth media containing 1 μM Retinoic Acid (Sigma).
On a day of the experiment loading buffer (Calcium-3 Assay Kit, Molecular Devices) was prepared by dissolving the contents of one vial (Express Kit) into 500 ml Hank's Balanced Salt Solution containing 20 mM HEPES and 5 mM probenecid. Equal volume of the loading buffer was mixed with the replacement buffer (Hank's Balanced Salt Solution containing 20 mM HEPES, 0.05% BSA and 5 mM probenecid). Retinoic Acid induced HL-60 cells were counted using ViaCount reagent, centrifuged and resuspended at 2.0×10^6 cells/ml density with the loading buffer/replacement buffer, dispensed into 384 well black/clear microplates (Falcon) (25 μl/well) and placed in a 37° C./5% CO2 incubator for 1 hour.
During the incubation, test compounds were prepared at 6× the desired concentration in HBSS/20 mM HEPES/0.05% BSA as well as LTB4 (Biomol) was prepared at 2.2× concentration in HBSS/20 mM HEPES/0.5% BSA buffer.
After the incubation, both the cell and compound plates were brought to the FLIPR and 5 μl of the diluted compounds were transferred to the cell plates by the FLIPR. Plates were then incubated for 30 min at room temperature. After the ½ hour incubation, plates were returned to the FLIPR and 25 μl of 2.2×LTB4 was added to the cell plates. During the assay, fluorescence readings were taken simultaneously from all 384 wells of the cell plate every 1.5 seconds. Five readings were taken to establish a stable baseline, then 25 μl (LTB4) of sample was rapidly and simultaneously added to each well of the cell plate. The fluorescence was continuously monitored before, during and after sample addition for a total elapsed time of 100 seconds. Responses (increase in peak fluorescence) in each well following agonist addition was determined. The initial fluorescence reading from each well, prior to ligand stimulation, was used a zero baseline value for the data from that well. The responses are expressed as % inhibition of the neutral control (neural control: wells that received buffer plus DMSO but no test compound).
(A change in cytosolic calcium serves as a functional read-out for many receptors and channels.)
`CC(=O)c1cc(OCCCCCCc2cccc(OCCCC(=O)O)c2CCC(=O)O)cc(-c2ccc3c(c2)OCO3)c1` [Example 64, 4-[3-[6-(3-Acetyl-5-benzo[1,3]dioxol-5-yl-phenoxy)-hexyl]-2-(2-carboxy-ethyl)-phenoxy]-butyric acid]: the IC50 was determined as 2.95 nM.

`COCc1cc(OCCCCCCc2cccc(OCCCC(=O)O)c2CCC(=O)O)cc(-c2ccc(OC(F)(F)F)cc2)c1` [Example 20, 4-{2-(2-Carboxy-ethyl)-3-[6-(5-methoxymethyl-4′-trifluoromethoxy-biphenyl-3-yloxy)-hexyl]-phenoxy}-butyric acid]: the IC50 is 15.1 nM. Consider `CCOCc1cc(OCCCCCCc2cccc(OCCCC(=O)O)c2CCC(=O)O)cc(-c2ccc(C(F)(F)F)cc2)c1` [Example 27, 4-{2-(2-Carboxy-ethyl)-3-[6-(5-ethoxymethyl-4′-trifluoromethyl-biphenyl-3-yloxy)-hexyl]-phenoxy}-butyric acid], for which the IC50 was found to be 6.24 nM.

Take `CC(=O)c1cc(OCCCCCCc2cccc(OCCCC(=O)O)c2CCC(=O)O)cc(-c2ccc3c(c2)OC(F)(F)O3)c1` [Example 69, 4-[3-{6-[3-Acetyl-5-(2,2-difluoro-benzo[1,3]dioxol-5-yl)-phenoxy]-hexyl}-2-(2-carboxy-ethyl)-phenoxy]-butyric acid]: the IC50 turned out to be 0.9 nM. With `N#CCc1cc(OCCCCCCc2cccc(OCCCC(=O)O)c2CCC(=O)O)cc(-c2ccsc2)c1` [Example 41, 4-{2-(2-Carboxy-ethyl)-3-[6-(3-cyanomethyl-5-thiophen-3-yl-phenoxy)-hexyl]-phenoxy}-butyric acid], the IC50 amounted to 15.2 nM. In the case of `CN(C)Cc1cc(OCCCCCCc2cccc(OCCCC(=O)O)c2CCC(=O)O)cc(-c2ccc(C(F)(F)F)cc2)c1` [Example 37, 4-{2-(2-Carboxy-ethyl)-3-[6-(5-dimethylaminomethyl-4′-trifluoromethyl-biphenyl-3-yloxy)-hexyl]phenoxy}-butyric acid], the IC50 came out at 0.37 nM.

For the compound `CCOc1cc(OCCCCCCc2cccc(OCCCC(=O)O)c2CCC(=O)O)cc(-c2ccccc2)c1` [Example 44, 4-[2-(2-Carboxy-ethyl)-3-[6-(5-ethoxy-biphenyl-3-yloxy)-hexyl]-phenoxy]-butyric acid], the IC50 was 1.26 nM. In the case of `CC(=O)c1cc(OCCCCCCc2cccc(OCCCC(=O)O)c2CCC(=O)O)cc(-c2cccc(F)c2)c1` [Example 67, 4-[3-[6-(5-Acetyl-3′-fluoro-biphenyl-3-yloxy)-hexyl]-2-(2-carboxy-ethyl)-phenoxy]-butyric acid], the IC50 stood at 5.1 nM.

As for `O=C(O)CCCOc1cccc(CCCCCCOc2cc(CO)cc(-c3ccsc3)c2)c1CCC(=O)O` [Example 3, 4-{2-(2-Carboxy-ethyl)-3-[6-(3-hydroxymethyl-5-thiophen-3-yl-phenoxy)-hexyl]-phenoxy}-butyric acid], the IC50 was 62.5 nM. `COCc1cc(OCCCCCCc2cccc(OCCCC(=O)O)c2CCC(=O)O)cc(-c2ccccc2)c1` [Example 9, 4-{2-(2-Carboxy-ethyl)-3-[6-(5-methoxymethyl-biphenyl-3-yloxy)-hexyl]-phenoxy}-butyric acid]: the IC50 amounted to 1.93 nM.

In the case of `O=C(O)CCCOc1cccc(CCCCCCOc2cc(OCC3CCCC3)cc(-c3ccsc3)c2)c1CCC(=O)O` [Example 62, 4-[2-(2-Carboxy-ethyl)-3-[6-(3-cyclopentylmethoxy-5-thiophen-3-yl-phenoxy)-hexyl]-phenoxy]-butyric acid], the IC50 was 7.98 nM. Regarding `Cc1ccc(-c2cc(CN(C)C)cc(OCCCCCCc3cccc(OCCCC(=O)O)c3CCC(=O)O)c2)cc1F` [Example 35, 4-{2-(2-Carboxy-ethyl)-3-[6-(5-dimethylaminomethyl-3′-fluoro-4′-methyl-biphenyl-3-yloxy)-hexyl]-phenoxy}-butyric acid], the IC50 worked out at 0.16 nM.

As for `COCc1cc(OCCCCCCc2cccc(OCCCC(=O)O)c2CCC(=O)O)cc(-c2cncnc2)c1` [Example 22, 4-[2-(2-Carboxy-ethyl)-3-[6-(3-methoxymethyl-5-pyrimidin-5-yl-phenoxy)-hexyl]-phenoxy]-butyric acid], the IC50 was 339 nM.

As for `CC(=O)c1cc(OCCCCCCc2cccc(OCCCC(=O)O)c2CCC(=O)O)cc(-c2ccc3c(c2)OCCO3)c1` [Example 65], the IC50 came to 2.07 nM. Consider `O=C(O)CCCOc1cccc(CCCCCCOc2cc(C(=O)C3CC3)cc(-c3ccc4c(c3)OCO4)c2)c1CCC(=O)O` [Example 72, 4-[3-[6-(3-Benzo[1,3]dioxol-5-yl-5-cyclopropanecarbonyl-phenoxy)-hexyl]-2-(2-carboxy-ethyl)-phenoxy]-butyric acid], for which the IC50 amounted to 0.16 nM. Consider `CCOCc1cc(OCCCCCCc2cccc(OCCCC(=O)O)c2CCC(=O)O)cc(-c2ccc(Cl)cc2)c1` [Example 28, 4-{2-(2-Carboxy-ethyl)-3-[6-(5-ethoxymethyl-4′-chloro-biphenyl-3-yloxy)-hexyl]-phenoxy}-butyric acid], for which the IC50 was 6.51 nM. The same measure for `COCc1cc(OCCCCCCc2cccc(OCCCC(=O)O)c2CCC(=O)O)cc(-c2cccc(Cl)c2)c1` [Example 18, 4-{2-(2-Carboxy-ethyl)-3-[6-(3′-chloro-5-methoxymethyl-biphenyl-3-yloxy)-hexyl]-phenoxy}-butyric acid]: 13.4 nM. Take `O=C(O)CCCOc1cccc(CCCCCCOc2cc(CO)cc(-c3ccc(Cl)cc3)c2)c1CCC(=O)O` [Example 5, 4-{2-(2-Carboxy-ethyl)-3-[6-(4′-chloro-5-hydroxymethyl-biphenyl-3-yloxy)-hexyl]-phenoxy}-butyric acid]: the IC50 came to 43.1 nM. As to `CCOc1cc(OCCCCCCc2cccc(OCCCC(=O)O)c2CCC(=O)O)cc(-c2ccc3scnc3c2)c1` [Example 56, 4-[3-{6-[3-Benzothiazol-5-yl-5-ethoxy-phenoxy]-hexyl}-2-(2-carboxy-ethyl)-phenoxy]-butyric acid], the IC50 turned out to be 0.32 nM. As to `CCOc1cc(OCCCCCCc2cccc(OCCCC(=O)O)c2CCC(=O)O)cc(-c2ccc(S(C)(=O)=O)cc2)c1` [Example 51, 4-[2-(2-Carboxy-ethyl)-3-[6-(5-ethoxy-4′-methanesulfonyl-biphenyl-3-yloxy)-hexyl]-phenoxy]-butyric acid], the IC50 is 2.1 nM. As to `COCc1cc(OCCCCCCc2cccc(OCCCC(=O)O)c2CCC(=O)O)cc(-c2cccc(OC)c2)c1` [Example 19, 4-{2-(2-Carboxy-ethyl)-3-[6-(3′-methoxy-5-methoxymethyl-biphenyl-3-yloxy)-hexyl]-phenoxy}-butyric acid], the IC50 is 9.44 nM. For `CCOc1cc(OCCCCCCc2cccc(OCCCC(=O)O)c2CCC(=O)O)cc(-c2ccc3cc[nH]c3c2)c1` [Example 55, 4-[2-(2-Carboxy-ethyl)-3-{6-[3-ethoxy-5-(1H-indol-6-yl)-phenoxy]-hexyl}-phenoxy]-butyric acid], the IC50 stood at 6.69 nM.
